According to patent US20230085307A1, “PYRIDAZINONE COMPOUND AND HERBICIDE” (NISSAN CHEMICAL CORPORATION, priority 2019, published 2023):

Tests used:
false cleavers = assay: Test Example 5: herbicidal effect by foliage application, plastic box (Table 20, symbol Q); type: in vivo, false cleavers (Galium spurium); conditions: for Q: false cleavers, herbicidal effect grade / herbicidal effect on false cleavers (Q): foliage application, three weeks after application
Summary of the method: (§1)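 Foliar spray test: emulsion formulation diluted in water to a set application rate, sprayed onto 14-day-old plants raised in diluvial soil at 25° C to 30° C under glass. Both herbicidal effect and crop effect rated visually three weeks later.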

transplanted rice = assay: Test Example 1: effect on crop, application before weed generation under submerged conditions (Table 16, symbol a); type: in vivo; conditions: amount of applied herbicide 320 g/ha
Source text: [Test Example 1] Herbicidal Activity Test by Application before Weed Generation under Submerged Conditions After alluvial soil was placed into 1/10000 are of Wagner pot, water was poured and mixed to form a submerged condition having a water depth of 4 cm. Seeds of late watergrass, Japanese bulrush, and oval-leafed pondweed were sowed in a mixed manner in the aforementioned pot, and then 2.5 leaf stage rice plant seedlings were transplanted thereto. On the day of sowing seeds, the emulsion agent of the compound of the present invention prepared according to Formulation Example 2 was diluted with water so as to achieve a predetermined herbicide amount, and the diluted emulsion agent was applied to the surface of the water. The pot was placed in a greenhouse at 25° C. to 30° C. for growth of the plants. Three weeks after the herbicide application, the effect of the herbicide on each plant was evaluated according to the following criteria. Evaluation Criteria 5: Herbicidal rate of 90% or more (almost completely withered) 4: Herbicidal rate of 70% or more and less than 90% 3: Herbicidal rate of 40% or more and less than 70% 2: Herbicidal rate of 20% or more and less than 40% 1: Herbicidal rate of 5% or more and less than 20% 0: Herbicidal rate of 5% or less (almost no effect)

directly sowed rice = assay: Test Example 3: effect on crop by foliage application, Wagner pot (Table 18, symbol b); type: in vivo; conditions: 320 g/ha
Summary of the method: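 Plants were sown in alluvial soil held under 0.1–0.5 cm standing water and grown 14 days in a greenhouse at 25–30 °C. An emulsifiable formulation, water-diluted to the set dose, was then sprayed onto the foliage, and effects were scored three weeks later using previously defined criteria.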

corn [1] = assay: Test Example 4: effect on crop by soil treatment (Table 19, symbol c); type: in vivo; conditions: amount of applied herbicide 320 g/ha
Summary of the method: (§2)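 Herbicidal effect was rated 3 weeks after treatment, using the scoring criteria of an earlier test. The compound, formulated as an emulsion and diluted in water to a set herbicide amount, had been sprayed uniformly on soil over freshly sown seeds. Growth took place in a greenhouse at 25° C. to 30° C.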

soybean [2] = assay: Test Example 4: effect on crop by soil treatment (Table 19, symbol d); type: in vivo; conditions: amount of applied herbicide 320 g/ha
Summary of the method: as §2

wheat [3] = assay: Test Example 4: effect on crop by soil treatment (Table 19, symbol e); type: in vivo; conditions: amount of applied herbicide 320 g/ha
Summary of the method: as §2

beet [4] = assay: Test Example 4: effect on crop by soil treatment (Table 19, symbol f); type: in vivo; conditions: amount of applied herbicide 320 g/ha
Summary of the method: as §2

rapeseed [5] = assay: Test Example 4: effect on crop by soil treatment (Table 19, symbol g); type: in vivo; conditions: amount of applied herbicide 320 g/ha
Summary of the method: as §2

corn [6] = assay: Test Example 5: effect on crop by foliage application, plastic box (Table 20, symbol c); type: in vivo; conditions: 320 g/ha, three weeks after application
Summary of the method: as §1

soybean [7] = assay: Test Example 5: effect on crop by foliage application, plastic box (Table 20, symbol d); type: in vivo; conditions: 320 g/ha, three weeks after application
Summary of the method: as §1

wheat [8] = assay: Test Example 5: effect on crop by foliage application, plastic box (Table 20, symbol e); type: in vivo; conditions: 320 g/ha, three weeks after application
Summary of the method: as §1

beet [9] = assay: Test Example 5: effect on crop by foliage application, plastic box (Table 20, symbol f); type: in vivo; conditions: 320 g/ha, three weeks after application
Summary of the method: as §1

rapeseed [10] = assay: Test Example 5: effect on crop by foliage application, plastic box (Table 20, symbol g); type: in vivo; conditions: 320 g/ha, three weeks after application
Summary of the method: as §1

CCCC(=O)Oc1c(C)nn(C)c(=O)c1-c1c(-c2ccccc2OC)sc2cc(F)ccc12 [3-004]
Q: false cleavers, herbicidal effect grade (false cleavers; 320 g/ha): 5 (Herbicidal rate of 90% or more (almost completely withered))

COc1ccc(-c2sc3cc(F)ccc3c2-c2c(O)c(C)nn(C)c2=O)cc1 [3-005]
Q: false cleavers, herbicidal effect grade (false cleavers; 320 g/ha): 4 (Herbicidal rate of 70% or more and less than 90%)

CCCC(=O)Oc1c(C)nn(C)c(=O)c1-c1c(-c2ccccc2OCC)sc2cc(F)ccc12 [3-007]
Q: false cleavers, herbicidal effect grade (false cleavers; 320 g/ha): 5 (Herbicidal rate of 90% or more (almost completely withered))

CCCC(=O)Oc1c(C)nn(C)c(=O)c1-c1c(-c2ccccc2OCC)sc2cc(Cl)ccc12 [3-040]
Q: false cleavers, herbicidal effect grade (false cleavers; 320 g/ha): 5 (Herbicidal rate of 90% or more (almost completely withered))

CCCC(=O)Oc1c(C)nn(C)c(=O)c1-c1c(-c2ccccc2OC)sc2cc(C)ccc12 [3-050]
Q: false cleavers, herbicidal effect grade (false cleavers; 224 g/ha): 4 (Herbicidal rate of 70% or more and less than 90%)

CCCC(=O)Oc1c(C)nn(C)c(=O)c1-c1c(-c2ccccc2OCC)sc2cc(C)ccc12 [3-054]
Q: false cleavers, herbicidal effect grade (false cleavers; 304 g/ha): 5 (Herbicidal rate of 90% or more (almost completely withered))

COc1cc(F)ccc1-c1sc2cc(C)ccc2c1-c1c(O)c(C)nn(C)c1=O [3-055]
Q: false cleavers, herbicidal effect grade (false cleavers; 320 g/ha): 4 (Herbicidal rate of 70% or more and less than 90%)

CCCC(=O)Oc1c(C)nn(C)c(=O)c1-c1c(-c2ccccc2OCC)sc2cc(OC)ccc12 [3-071]
Q: false cleavers, herbicidal effect grade (false cleavers; 320 g/ha): 5 (Herbicidal rate of 90% or more (almost completely withered))

CCOc1cc(F)ccc1-c1sc2cc(OC)ccc2c1-c1c(O)c(C)nn(C)c1=O [3-078]
Q: false cleavers, herbicidal effect grade (false cleavers; 80 g/ha): 5 (Herbicidal rate of 90% or more (almost completely withered))

CCCC(=O)Oc1c(C)nn(C)c(=O)c1-c1c(-c2ccc(F)cc2OCC)sc2cc(OC)ccc12 [3-079]
Q: false cleavers, herbicidal effect grade (false cleavers; 320 g/ha): 5 (Herbicidal rate of 90% or more (almost completely withered))

COc1ccc2c(-c3c(O)c(C)nn(C)c3=O)c(-c3ccc4c(c3)OCCO4)sc2c1 [3-082]
Q: false cleavers, herbicidal effect grade (false cleavers; 320 g/ha): 5 (Herbicidal rate of 90% or more (almost completely withered))

CCCC(=O)Oc1c(C)nn(C)c(=O)c1-c1c(-c2ccc3c(c2)OCCO3)sc2cc(OC)ccc12 [3-083]
Q: false cleavers, herbicidal effect grade (false cleavers; 320 g/ha): 5 (Herbicidal rate of 90% or more (almost completely withered))

CCOc1ccc2c(-c3c(O)c(C)nn(C)c3=O)c(-c3ccccc3OC)sc2c1 [3-089]
Q: false cleavers, herbicidal effect grade (false cleavers; 320 g/ha): 5 (Herbicidal rate of 90% or more (almost completely withered))

CCOc1ccc2c(-c3c(O)c(C)nn(C)c3=O)c(-c3ccccc3OCC)sc2c1 [3-093]
Q: false cleavers, herbicidal effect grade (false cleavers; 320 g/ha): 5 (Herbicidal rate of 90% or more (almost completely withered))

CCCC(=O)Oc1c(C)nn(C)c(=O)c1-c1c(-c2ccccc2OCC)sc2cc(OCC)ccc12 [3-094]
Q: false cleavers, herbicidal effect grade (false cleavers; 323 g/ha): 5 (Herbicidal rate of 90% or more (almost completely withered))

CCCC(=O)Oc1c(C)nn(C)c(=O)c1-c1c(-c2ccc(F)cc2OCC)sc2cc(OCC)ccc12 [3-096]
Q: false cleavers, herbicidal effect grade (false cleavers; 320 g/ha): 5 (Herbicidal rate of 90% or more (almost completely withered))

CCCC(=O)Oc1c(C)nn(C)c(=O)c1-c1c(-c2ccccc2OC)sc2cc(F)c(F)cc12 [5-012]
Herbicidal effect by foliage application, Q: false cleavers (false cleavers; amount of applied herbicide 320 g/ha, foliage application after 14-day growth, evaluated three weeks after application): 5 (Herbicidal rate of 90% or more (almost completely withered))

CCOc1ccc2c(-c3c(O)c(C)nn(C)c3=O)c(-c3ccccc3OC)sc2c1Cl [7-003]
herbicidal effect on false cleavers (Q) (false cleavers; 320 g/ha): 5 (Herbicidal rate of 90% or more (almost completely withered))

CCCC(=O)Oc1c(C)nn(C)c(=O)c1-c1c(-c2ccc(F)cc2)oc2ccc(C)cc12 [9-005]
herbicidal effect on false cleavers (Q) (false cleavers; 390 g/ha): 4 (Herbicidal rate of 70% or more and less than 90%)

COc1ccc(-c2oc3ccc(C)cc3c2-c2c(O)c(C)nn(C)c2=O)cc1 [9-007]
herbicidal effect on false cleavers (Q) (false cleavers; 320 g/ha): 1 (Herbicidal rate of 5% or more and less than 20%)

CCCC(=O)Oc1c(C)nn(C)c(=O)c1-c1c(-c2ccc(OC)cc2)oc2ccc(C)cc12 [9-008]
herbicidal effect on false cleavers (Q) (false cleavers; 320 g/ha): 0 (Herbicidal rate of 5% or less (almost no effect))

COc1ccc2c(-c3c(O)c(Cl)nn(C)c3=O)c(-c3ccccc3OC)sc2c1 [Compound No. 3-088, 6-chloro-5-hydroxy-4-(6-methoxy-2-(2-methoxyphenyl)benzo[b]thiophen-3-yl)-2-methylpyridazin-3(2H)-one]
Effect on crop, a: transplanted rice (transplanted rice): 0 (Herbicidal rate of 5% or less (almost no effect))
effect on directly sowed rice (b) (directly sowed rice): 0 (Herbicidal rate of 5% or less (almost no effect))
c: corn, effect on crop grade (corn [1]): 0 (Herbicidal rate of 5% or less (almost no effect))
d: soybean, effect on crop grade (soybean [2]): 1 (Herbicidal rate of 5% or more and less than 20%)
e: wheat, effect on crop grade (wheat [3]): 0 (Herbicidal rate of 5% or less (almost no effect))
f: beet, effect on crop grade (beet [4]): 3 (Herbicidal rate of 40% or more and less than 70%)
g: rapeseed, effect on crop grade (rapeseed [5]): 5 (Herbicidal rate of 90% or more (almost completely withered))
c: corn, effect on crop grade (corn [6]): 0 (Herbicidal rate of 5% or less (almost no effect))
d: soybean, effect on crop grade (soybean [7]): 3 (Herbicidal rate of 40% or more and less than 70%)
e: wheat, effect on crop grade (wheat [8]): 0 (Herbicidal rate of 5% or less (almost no effect))
f: beet, effect on crop grade (beet [9]): 5 (Herbicidal rate of 90% or more (almost completely withered))
g: rapeseed, effect on crop grade (rapeseed [10]): 5 (Herbicidal rate of 90% or more (almost completely withered))
melting point: 209 to 211 °C

COc1ccccc1-c1sc2cc(OCC(F)(F)F)ccc2c1-c1c(O)c(C)nn(C)c1=O [Compound No. 3-116, 5-hydroxy-4-(2-(2-methoxyphenyl)-6-(2,2,2-trifluoroethoxy)benzo[b]thiophen-3-yl)-2,6-di methylpyridazin-3 (2H)-one]
Effect on crop, a: transplanted rice (transplanted rice): 4 (Herbicidal rate of 70% or more and less than 90%)
effect on directly sowed rice (b) (directly sowed rice): 5 (Herbicidal rate of 90% or more (almost completely withered))
c: corn, effect on crop grade (corn [1]): 0 (Herbicidal rate of 5% or less (almost no effect))
d: soybean, effect on crop grade (soybean [2]): 1 (Herbicidal rate of 5% or more and less than 20%)
e: wheat, effect on crop grade (wheat [3]): 1 (Herbicidal rate of 5% or more and less than 20%)
f: beet, effect on crop grade (beet [4]): 5 (Herbicidal rate of 90% or more (almost completely withered))
g: rapeseed, effect on crop grade (rapeseed [5]): 5 (Herbicidal rate of 90% or more (almost completely withered))
c: corn, effect on crop grade (corn [6]): 0 (Herbicidal rate of 5% or less (almost no effect))
d: soybean, effect on crop grade (soybean [7]): 5 (Herbicidal rate of 90% or more (almost completely withered))
e: wheat, effect on crop grade (wheat [8]): 3 (Herbicidal rate of 40% or more and less than 70%)
f: beet, effect on crop grade (beet [9]): 5 (Herbicidal rate of 90% or more (almost completely withered))
g: rapeseed, effect on crop grade (rapeseed [10]): 5 (Herbicidal rate of 90% or more (almost completely withered))
melting point: 216 to 218 °C
